This is an account of results in patent US20230279379A1, “METHODS AND MICROFLUIDIC DEVICE FOR PRODUCING EXTRACELLULAR VESICLES” (THE BOARD OF TRUSTEES OF THE UNIVERSITY OF ILLINOIS, priority 2022, published 2023).

The test system of experiment [1] is Primary human MSCs. Briefly: EV secretion per cell from MSCs on hydrogel substrates, nanoparticle tracking analysis. The experiment is classed as cell-based. The note with it: 5 μM CK869; hydrogels. How it is done:
Cell Seeding on Hydrogels. Hydrogel discs were placed in ultra-low binding polystyrene well plates (Corning) to ensure cells attach to hydrogels and not the plate surface. Hydrogels were washed with Hank's buffered salt solution (HBSS, Thermo Fisher Scientific) for at least 3 days before seeding cells. Cells were seeded at a low density (25 cells/mm^2). After seeding, hydrogels were washed thoroughly to remove unattached cells. Drug treatments of 3 μM MnCl2 (Thermo Fisher Scientific), 200 nM EMD 121974 sold under the tradename Cilengitide® (Cayman) and 5 μM CK869 (Cayman) were applied during and after cell adhesion to substrates. To evaluate the number of live cells seeded on substrates, cells were detached by incubating with a natural enzyme mixture with proteolytic and collagenolytic enzyme activity sold under the tradename ACCUTASE® Cell Detachment Solution (Innovative Cell Technologies, Inc.) for 10 minute at 37° C. Cells were then washed by centrifugation and directly added to HBSS containing calcein AM (1:2000; Biotium), ethidium bromide (1:2000; Thermo Fisher Scientific), and a predefined number of allophycocyanin (APC) beads (BD). After incubation at room temperature (RT) for 10 minutes, the samples were analyzed for live and dead cell number by flow cytometry.
Particle Size and Number Characterization. Particle size and number were obtained using Nanoparticle Tracking Analysis 3.2 (NTA) via NanoSight NS300 (Malvern) using a 405 nm laser. Samples were introduced by syringe pump at a rate 100 μL/min. Three thirty-second videos were acquired using camera level 14 followed by detection threshold 7. Camera focus, shutter, blur, minimum track length, minimum expected particle size and maximum jump length were set automatically by the software. Samples were diluted as needed to maintain particles per video from 100-2000. To ensure specificity, all samples were tested as compared to appropriate blank conditions.
To test the effect of substrate mechanics on EV secretion from MSCs, hydrogel substrates were engineered which were composed of alginate polymer conjugated with the cell adhesion peptide Arg-Gly-Asp (RGD) that binds primarily to αvβ3 and α5β1 integrins. Alginate-RGD hydrogels can be formed either covalently through adipic acid dihydrazide or physically through divalent cations, resulting in elastic or stress-relaxing hydrogels, respectively. For both types of hydrogels, elastic modulus (Young's modulus, E) of ˜3 kPa ‘soft’ and E ˜20 kPa ‘stiff’ were considered values that represent a physiologically relevant range of substrate elasticity for MSC mechanosensing, while E is ˜0.1 GPa for conventional plastic substrates. Primary human bone marrow MSCs were allowed to adhere to substrates for 24 hours followed by washout and collection of the serum-free conditioned medium from MSCs after 24 hours. After centrifugation of the medium at 10,000 g to remove cell, apoptotic, and larger particle fractions, particles remaining in the medium were analyzed by nanoparticle tracking analysis and normalized to the number of live adhered cells counted by flow cytometry (see Methods). MSCs were seeded at low density (˜25 cells/mm^2) to avoid potential effects from cell-cell interactions. […] Thus, focus was placed on the EVs remaining in the supernatant after the 10,000 g centrifugation. For these EVs, the particle size distribution remained similar across different substrates with median diameter ˜120 nm (FIG. 1B). […] Moreover, EVs from different substrates expressed similar levels of late endosomal markers CD63 and CD9. Importantly, levels of ribosomal RNA (rRNA) in particle preparations were similar across hydrogels or plastic substrates, and rRNA as a percentage of total RNA was lower than that found in untreated MSCs or particles derived from H2O2-treated apoptotic MSCs, ruling out apoptosis as a potential factor of increased EV secretion on the soft hydrogel. […]

The test system of experiment [2] is F-actin in MSCs. Briefly: Confocal imaging of F-actin in cells on hydrogels. The experiment is classed as cell-based. As to conditions: CK869 for 2 hours; cell adhesion for 4 hours. How it is done: Sample Preparation for Imaging of F-Actin in Cells on Hydrogels. To prepare samples for F-actin imaging, glass bottom dishes (No 0., 35 mm; MatTek) were silanized, and a thin layer of PEG-DA hydrogel with varied elasticity was formed as described above. After cell seeding on hydrogels and culturing cells in the presence of DMSO or CK869, cells were permeabilized with 0.0015% saponin (Sigma) in a cytoskeleton buffer (10 mM MES, pH 6.0, 150 mM NaCl, 5 mM EGTA, 5 mM glucose, and 5 mM MgCl2) for 4 minutes at room temperature. The samples were then washed with the cytoskeleton buffer 3 times and fixed with 4% paraformaldehyde in the cytoskeleton buffer for 20 minutes at room temperature. After washing 3 times with the cytoskeleton buffer, the samples were reduced in 0.1% sodium borohydride in PBS for 20 minutes at room temperature. To label F-actin in cells, the samples were stained with a fluorescent stain sold under the tradename ALEXA FLUOR® 488 phalloidin (1:1000; Cayman) for confocal imaging or ALEXA FLUORO 647 phalloidin (1:10000; Cayman) for super-resolution imaging in PBS with 3% BSA for 40 minutes at room temperature. The samples were washed 3 times with PBS prior to imaging.
Confocal Imaging of F-actin. […] A mean projection image was created from each confocal stack, and average intensity ALEXA FLUOR® 488 phalloidin per cell was analyzed by ImageJ (NIH). […]

Consider `COc1ccc(N2C(=O)CSC2c2cccc(Br)c2)c(OC)c1` (centres unmarked) [CK869], for which the “EV secretion compared to DMSO” value in experiment [1] was “significantly increased EV secretion”. Besides, the “mean intensity of phalloidin-labelled F-actin signal per cell” value in experiment [2] was “decrease the signal intensity on both substrates”.
